Assay results reported in publication PMC5216742, “Discovery and characterization of a novel potent type II native and mutant BCR-ABL inhibitor (CHMFL-074) for Chronic Myeloid Leukemia (CML)” (Oncotarget, 2016).
pKd: −log10 of the molar value. “Also recorded” adds a separate entry of the source.

Experiments:
[1] = tested on: K562 tumor xenografts; assay: K562 xenograft tumor model; type: in vivo
Excerpt: Five-week old female nu/nu mice were purchased from the Shanghai Experimental Center, Chinese Science Academy (Shanghai, China). All animals were housed in a specific pathogen-free facility and used according to the animal care regulations of Hefei Institutes of Physical Science Chinese Academy of Sciences. Prior to implantation, cells were harvested during exponential growth. Five million K562 cells in PBS were formulated as a 1:1 mixture with Matrigel (BD Biosciences) and injected into the subcutaneous space on the right flank of nu/nu mice. Daily oral administration was initiated when K562 tumors had reached a size of 200 to 300 mm^3. Animals were then randomized into treatment groups of 6 mice each for efficacy studies. CHMFL-074 was delivered daily in a HKI solution (0.5% Methocellulose/0.4% Tween 80 in dd H2O) by orally gavage. Body weight was measured daily and tumor growth was measured every day after CHMFL-074 treatment. Tumor volumes were calculated as follows: tumor volume (mm^3) = [(W^2 × L)/2] in which width (W) is defined as the smaller of the two measurements and length (L) is defined as the larger of the two measurements.

[2] = tested on: Tel-LCK-BaF3; assay: Anti-proliferation, BaF3 isogenic cell lines; type: cell-based; settings: Mus musculus; Tel-LCK-BaF3, 72 hours
Excerpt: (§1) Retroviral constructs for fusion kinases were made based on the pMSCVpuro (Clontech) backbone. For TEL fusion vectors, the first 1 kb of human TEL gene with an artificial myristoylation sequence ([…]) was cloned into pMSCVpuro retroviral vector, followed by a 3xFLAG tag sequence and a stop codon; for BCR fusion vectors, the first 2.8 kb coding region of p210 amplified from K562 cell line was used in fusion constructs. Then the kinase domain coding sequences were inserted in-frame between TEL/BCR and 3xFLAG sequences. All mutagenesis were performed using the QuikChange Site-Directed Mutagenesis Kit (Stratagene) following the manufacturer's instructions. Retrovirus was packaged in HEK293T cells by transfecting kinase-fusion MSCV vectors together with two helper plasmids, virus supernatants were harvested 48 hours after transfection and filtered before infection. Then BaF3 cells were infected with harvested virus supernatants using spinoculation protocol and stable cell lines were obtained by puromycin selection for 48 hours. A second selection in the absence of IL-3 was performed to obtain IL-3 independent cell lines that solely depend on the introduced kinase activities for cell proliferation.
(§2) A density of 1 × 10^4 to 2.5 × 10^4 cells/mL cells were mixed with various concentrations of compounds then 100 μL suspension was added to each well and incubated for 72 hours. Cell viability was determined using the CellTiter-Glo assay (Promega, USA) or CCK-8 assay (Beboy, China). Both assays were performed according to the manufacturer instructions. For CellTiter-Glo assay, luminescence was determined in a multi-label reader (Envision, PerkinElmer, USA). […] Data were normalized to control group (DMSO). GI50 were calculated using Prism 6.0 (GraphPad Software, San Diego, CA).

[3] = tested on: Tel-PDGFRβ-BaF3; assay: Anti-proliferation, BaF3 isogenic cell lines; type: cell-based; settings: Mus musculus, BaF3, 72 h
Excerpt: as §1, §2

[4] = tested on: BaF3; assay: Anti-proliferation, BaF3 isogenic cell lines; type: cell-based; settings: Mus musculus, BaF3, 72 h
Excerpt: as §1, §2

[5] = tested on: P210-F317L-BaF3; assay: Anti-proliferation, BaF3 isogenic cell lines; type: cell-based; settings: Mus musculus, BaF3, 72 h
Excerpt: as §1, §2

[6] = tested on: P210-T315I-BaF3; assay: Anti-proliferation, BaF3 isogenic cell lines; type: cell-based; settings: Mus musculus; P210-T315I-BaF3, 72 hours
Excerpt: as §1, §2

[7] = tested on: P210-M351T-BaF3; assay: Anti-proliferation, BaF3 isogenic cell lines; type: cell-based; settings: Mus musculus, BaF3, 72 h
Excerpt: as §1, §2

[8] = tested on: P210-Q252H-BaF3; assay: Anti-proliferation, BaF3 isogenic cell lines; type: cell-based; settings: Mus musculus, BaF3, 72 h
Excerpt: as §1, §2

[9] = tested on: TEL-DDR1-BaF3; assay: Anti-proliferation, BaF3 isogenic cell lines; type: cell-based; settings: Mus musculus; TEL-DDR1-BaF3, 72 hours
Excerpt: as §1, §2

[10] = tested on: Tel-PDGFRα-BaF3; assay: Anti-proliferation, BaF3 isogenic cell lines; type: cell-based; settings: Mus musculus, BaF3, 72 h
Excerpt: as §1, §2

[11] = tested on: Tel-BLK-BaF3; assay: Anti-proliferation, BaF3 isogenic cell lines; type: cell-based; settings: Mus musculus, BaF3, 72 h
Excerpt: as §1, §2

[12] = tested on: P210-H369P-BaF3; assay: Anti-proliferation, BaF3 isogenic cell lines; type: cell-based; settings: Mus musculus, BaF3, 72 h
Excerpt: as §1, §2

[13] = tested on: P210-E255K-BaF3; assay: Anti-proliferation, BaF3 isogenic cell lines; type: cell-based; settings: Mus musculus, BaF3, 72 h
Excerpt: as §1, §2

[14] = tested on: Tel-HCK-BaF3; assay: Anti-proliferation, BaF3 isogenic cell lines; type: cell-based; settings: Mus musculus, BaF3, 72 h
Excerpt: as §1, §2

[15] = tested on: P210-F317I-BaF3; assay: Anti-proliferation, BaF3 isogenic cell lines; type: cell-based; settings: Mus musculus, BaF3, 72 h
Excerpt: as §1, §2

[16] = tested on: Tel-RET-BaF3; assay: Anti-proliferation, BaF3 isogenic cell lines; type: cell-based; settings: Mus musculus, BaF3, 72 h
Excerpt: as §1, §2

[17] = tested on: BCR-DDR2-BaF3; assay: Anti-proliferation, BaF3 isogenic cell lines; type: cell-based; settings: Mus musculus, BaF3, 72 h
Excerpt: as §1, §2

[18] = tested on: P210-Y253F-BaF3; assay: Anti-proliferation, BaF3 isogenic cell lines; type: cell-based; settings: Mus musculus, BaF3, 72 h
Excerpt: as §1, §2

[19] = biological target: T1, ABL1 kinase (Homo sapiens, UniProt P00519); assay: Microscale thermophoresis (MST) binding Kd assay; settings: binding Kd against ABL1 kinase
T1 construct: A construct encoding c-ABL residues 229–500 with a His tag; made in house; host or cells: SF9 insect cells (baculovirus, pFASTHTA)
Experimental: A construct encoding c-ABL residues 229–500 with a His tag was cloned into baculovirus expression vector pFASTHTA. The protein was expressed by infecting SF9 cells with high titer viral stocks for 48 hours. Cells were harvested and lysed in 30 mM Tris pH 7.4, 150 mM NaCl, 3 mM KCl, 10% glycerol, 1 mM PMSF, 2 mM TCEP, 1 mM ADP, 20 mM Imidazole. The supernatant was loaded to Ni-NTA Column (QIAGEN, 1018244). Then the proteins were gradient washed using the same buffer with 50 mM, 100 mM imidazole, then the ABL protein was eluted with Elution buffer (20 mM Tris, 500 mM NaCl, 1% glycerol, 1 mM TCEP, 0.5 mM ADP, 300 mM Imidazole, pH 8.0). The eluted protein was loaded on desalt column PD-10(GE) to change the buffer to 20 mM Tris, 500 mM NaCl, 1% glycerol, 2 mM TCEP, pH 8.0. The protein was concentrated to 1 mg/ml and aliquots were frozen and stored at −80 °C.
The Kd was measured using the Monolith NT.115 from Nanotemper Technologies. Proteins were fluorescently labeled according to the manufacturer's protocol. […] The sample was loaded into the NanoTemper glass capillaries and microthermophoresis carried out using 20% LED power and 30% MST Power. KD were calculated using the mass action equation via the NanoTemper software from duplicate reads of triplicate experiments.

T1 sequence (P00519 229-500): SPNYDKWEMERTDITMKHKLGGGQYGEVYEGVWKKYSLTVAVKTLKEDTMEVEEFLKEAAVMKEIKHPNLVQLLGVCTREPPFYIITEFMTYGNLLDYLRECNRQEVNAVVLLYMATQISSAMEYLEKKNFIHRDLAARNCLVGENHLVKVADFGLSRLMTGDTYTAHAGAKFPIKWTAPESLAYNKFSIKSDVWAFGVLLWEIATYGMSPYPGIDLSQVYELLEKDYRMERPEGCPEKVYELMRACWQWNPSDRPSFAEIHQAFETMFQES

## Cc1ccc(NC(=O)c2ccc(CN3CCN(C)CC3)c(C(F)(F)F)c2)cc1OC1CCN(C(=O)c2cccnc2)CC1 [CHMFL-074]
[1]; 100 mg/kg/d oral, 12-day treatment
  TGI (tumor growth inhibition): 65%
[1]; 100 mg/kg/day oral
  toxicity in xenograft mice: without exhibiting apparent toxicity; also recorded: no apparent toxicity was observed
[2]
  GI50: 2020 nM
[3]
  GI50: 52 nM
[4]
  GI50: > 10000 nM
[5]
  GI50: 218 nM
[6]
  GI50: > 10000 nM
[7]
  GI50: 349 nM
[8]
  GI50: 118 nM
[9]
  GI50: 3520 nM
[10]
  GI50: 95 nM
[11]
  GI50: 2860 nM
[12]
  GI50: 1040 nM
[13]
  GI50: 774 nM
[14]
  GI50: > 10000 nM
[15]
  GI50: 355 nM
[16]
  GI50: 630 nM
[17]
  GI50: 2670 nM
[18]
  GI50: 338 nM
[19]
  pKd: 7.62
